22 compounds from US7968552B2, “Oxadiazolidinedione compound” (Astellas Pharma Inc., priority 2006, dated 2011) can be followed below.

The target in one assay is T1, human GPR40 (Homo sapiens, UniProt O14842, R211H).
T1 construct: expressed in transfected cells
The experiment in a line: Measurement of GPR40 agonist action (FLIPR, intracellular calcium). The assay is classed as cell-based. The conditions noted are these: CHO cell strain expressing human GPR40; changes in fluorescence intensity after 1 minute of the measurement. From the text:
Test Method 1: Measurement of GPR40 Agonist Action […]
i) Cloning of Human GPR40
Complete length sequence of GPR40 was obtained by carrying out a PCR method in accordance with the procedure shown below using a human genomic DNA (Clontech) as the template.
An oligonucleotide consisting of the nucleotide sequence represented by SEQ ID NO:1 was used as the forward primer, and an oligonucleotide consisting of the nucleotide sequence represented by SEQ ID NO:2 as the reverse primer. In this connection, a nucleotide sequence comprising a XbaI recognition region is added to the respective 5′-termini of the aforementioned forward primer and reverse primer. PCR was carried out in the presence of 5% dimethyl sulfoxide (DMSO) using a Taq DNA polymerase (Ex Taq DNA polymerase; Takara Bio), by repeating 30 times of a cycle consisting of 94° C. (15 seconds)/55° C. (30 seconds)/72° C. (1 minute). As a result, a DNA fragment of about 0.9 kbp was amplified. This DNA fragment was digested with XbaI and then inserted into the XbaI site of a plasmid pEF-BOS-dhfr (Nucleic acids Research, 18, 5322, 1990), thereby obtaining a plasmid pEF-BOS-dhfr-GPR40.
Nucleotide sequence of the GPR40 gene in the pEF-BOS-dhfr-GPR40 was determined by the dideoxy terminator method using a DNA sequencer (ABI 377 DNA Sequencer, Applied Biosystems). Nucleotide sequence of the GPR40 gene was as the nucleotide sequence represented by SEQ ID NO:3. The nucleotide sequence represented by SEQ ID NO:3 has an open reading frame (ORF) of 903 bases, and the amino acid sequence deduced from this ORF (300 amino acids) was as the amino acid sequence represented by SEQ ID NO:4. […]
ii) Preparation of GPR40 Stable Expression Cell
As the cell for expressing GPR protein, CHO dhfr cell (a dihydrofolate reductase (dhfr)-deficient CHO cell) was used. Also, as the plasmid for expressing GPR40 protein, the plasmid pEF-BOS-dhfr-GPR40 obtained in the aforementioned i) was used. The CHO dhfr cell was inoculated into αMEM medium containing 10% fetal calf serum (FCS) using a 6 well plate (Asahi Techno Glass) and cultured overnight to an 80 to 90% confluence, and then 2 μg per well of the plasmid pEF-BOS-dhfr-GPR40 was gene-transferred using a transfection reagent (Lipofectamine 2000; Invitrogen). After 24 hours of culturing from the gene transfer, the cells were diluted and inoculated again. […] After 20 days of culturing, the thus formed colonies of cells were individually recovered and cultured to obtain CHO cells stably expressing GPR40. From these, cells having high reactivity for intrinsic ligands oleic acid and linoleic acid were selected. […]
iii) Measurement of GPR40 Agonist Action
This test was measured by FLIPR (registered trademark, Molecular Device) using a change in intracellular calcium concentration as the index. The test method is shown in the following.
A CHO cell strain in which human GPR40 was expressed was inoculated into a 384 well black plate (Becton Dickinson) in 6×10^3 cells per well portions and cultured overnight in a CO2 incubator.
Using Calcium-3 assay kit (Molecular Device), one bottle of the phosphorescent pigment was dissolved in 10 ml of HBSS-HBEPES buffer (pH 7.4, 1×HBSS, 20 mM HEPES, Invitrogen). A 35.68 mg of probenecid (Sigma) was dissolved in 250 μl of 1M NaOH and adjusted by adding 250 μl of the HBSS-HEPES buffer. A phosphorescent pigment solution was prepared by mixing 16 ml of HBSS-HEPES buffer, 640 μl of the phosphorescent pigment and 32 μl of probenecid per one plate. The medium was discarded from the plate, and the phosphorescent pigment solution was dispensed in 40 μl per well portions and then incubated at room temperature for 2 hours. Each compound to be tested was dissolved in DMSO and then diluted with HBSS-HEPES buffer and dispensed in 10 μl portions into the plate, thereby starting the reaction, and changes in the intracellular calcium concentration were measured by FLIPR. […]

Another assay has as its system MIN6 cell. The assay can be described thus: Insulin secretion-promoting action using MIN6 cell. The following applies: relative activity value at 1 μM of each compound, based on 100% control (DMSO), 2 hours incubation. Also noted: species or system mouse. How it is done: Test Method 2: Insulin Secretion-Promoting Action Using MIN6 Cell
This rest examined insulin acceleration action of compounds to be tested using a mouse pancreas β cell strain, MIN6 cell. The test method is shown in the following.
The MIN6 cell was dispensed in 5×10^4 cells/well (200 μl) portions into a 96 well plate. DMEM (25 mM glucose) containing 10% FBS, 55 μM 2-mercaptoethanol, 100 U/ml penicillin and 100 μg/ml streptomycin was used as the medium. The medium was discarded 2 days thereafter using an aspirator, followed by washing once with 200 μl of KRB-HEPES (116 mM NaCl, 4.7 mM KCl, 1.2 mM KH2PO4, 1.2 mM MgSO4, 0.25 mM CaCl2, 25 mM NaHCO3, 0.005% FFA Free BSA, 24 mM HEPES (pH 7.4)) containing 2.8 mM glucose, which was warmed up to 37° C., and subsequent incubation again at 37° C. for 1 hour by adding 200 μl of the same buffer. After discarding the above-mentioned buffer using an aspirator and again washing with the buffer (200 μl), a predetermined concentration of a compound to be tested was added to the KRB-HEPES containing 2.8 mM or 22.4 mM glucose and added to respective wells in 100 μl portions and incubated at 37° C. for 2 hours. The above-mentioned samples were fractioned and diluted 100 times, and the insulin concentration was determined using an insulin RIA kit (Amersham RI). The activity value was shown by a relative activity value (%) at the time of 1 μM of each compound, based on 100% control (DMSO).

The test system of assay [1] is blood glucose after glucose loading. The experiment in a line: Normal mice single oral glucose tolerance test. The assay is classed as in vivo. The following applies: Mus musculus, 0.5 h, male ICR mice, 10 mg/kg orally 30 minutes before glucose loading (2 g/kg), 30 minutes after glucose loading, based on control group, read-out: Blood glucose lowering ratio. The protocol: Test Method 3: Normal Mice Single Oral Glucose Tolerance Test
This test examined on the blood glucose suppression action of compounds to be tested after glucose loading, using normal mice. The test method is shown below.
Male ICR mice (6 weeks of age) after 1 week of preliminary rearing were subjected to overnight fasting and used as the animals to be tested. Each compound to be tested was made into a 0.5% methyl cellulose suspension and orally administered at a dose of 10 mg/kg 30 minutes before the glucose loading (2 g/kg). Administration of 0.5% methyl cellulose was used in the control group. Blood glucose lowering ratio (%) after 30 minutes of glucose loading was calculated based on the control group.

T1 sequence (O14842 whole entry R211H): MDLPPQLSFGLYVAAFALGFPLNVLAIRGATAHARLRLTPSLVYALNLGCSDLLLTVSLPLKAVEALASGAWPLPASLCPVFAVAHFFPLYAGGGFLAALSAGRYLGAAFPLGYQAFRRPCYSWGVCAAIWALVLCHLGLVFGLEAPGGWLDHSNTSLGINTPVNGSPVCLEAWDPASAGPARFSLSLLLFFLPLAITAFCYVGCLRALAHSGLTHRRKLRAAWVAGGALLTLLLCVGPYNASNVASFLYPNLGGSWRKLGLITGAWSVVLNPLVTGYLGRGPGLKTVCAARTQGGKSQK

Usually EC50 stands for the concentration that produces a half-maximal response. For `COc1cc(F)c(-c2cccc(COc3ccc(Cn4oc(=O)[n-]c4=O)cc3)c2)c(F)c1.[Na+]` [Example 4, sodium 2-{4-[(2′,6′-difluoro-4′-methoxybiphenyl-3-yl)methoxy]benzyl}-3,5-dioxo-1,2,4-oxadiazolidin-4-ide], the EC50 on human GPR40 was 0.35 µM. Besides, in the assay with MIN6 cell, the Insulin secretion-accelerating action is 177%.

Take `O=c1[nH]c(=O)n(Cc2ccc(OCc3cccc(-c4ccc(OCCO)cc4)c3)cc2)o1` [Example 8]: the EC50 on human GPR40 turned out to be 0.031 µM. Still for that read-out and setting: to `O=c1[nH]c(=O)n(Cc2ccc(OCc3cccc(Br)c3)cc2)o1` [Example 9, 2-{4-[(3-bromobenzyl)oxy]benzyl}-1,2,4-oxadiazolidine-3,5-dione] belongs 0.8 µM. Regarding `Cc1cc(OCCO)ccc1-c1cccc(COc2ccc(Cn3oc(=O)[nH]c3=O)cc2)c1` [Example 14, sodium 2-(4-{[4′-(2-hydroxyethoxy)-2′-methylbiphenyl-3-yl]methoxy}benzyl)-3,5-dioxo-1,2,4-oxadiazolidin-4-ide], the EC50 at human GPR40 worked out at 0.39 µM. The inhibition in vivo at 10 mg/kg in assay [1] turned out to be 34%.

In the case of `Cc1cccc(C)c1-c1cccc(C(=O)Nc2ccc(Cn3oc(=O)[nH]c3=O)cc2)c1` [Example 16, sodium 2-(4-{[(2′,6′-dimethylbiphenyl-3-yl)carbonyl]amino}benzyl)-3,5-dioxo-1,2,4-oxadiazolidin-4-ide], on human GPR40, the EC50 was 0.45 µM. Same read-out and setting: the figure for `O=c1[nH]c(=O)n(Cc2ccc(OCc3cccc(-c4cccnc4)c3)cc2)o1` [Example 33] is 0.64 µM. Turning to `N#Cc1ccc(-c2cccc(COc3ccc(Cn4oc(=O)[nH]c4=O)cc3)c2)cc1` [Example 34], the Insulin secretion-accelerating action in the assay with MIN6 cell was determined as 169%.

For `O=c1[n-]c(=O)n(Cc2ccc(OCc3cccc(Oc4ccccc4)c3)cc2)o1.[Na+]` [Example 38], the EC50 on human GPR40 came out at 0.65 µM. In the assay on MIN6 cell, this compound showed an Insulin secretion-accelerating action of 228%. As for `Cc1cccc(C)c1-c1cccc(COc2ccc(Cn3oc(=O)[n-]c3=O)cc2)c1.[Na+]` [Example 39], at human GPR40, the EC50 was 0.26 µM. The same compound displayed an Insulin secretion-accelerating action in the assay with MIN6 cell of 192%. For the same compound, the inhibition in vivo at 10 mg/kg in assay [1] was found to be 26%. Turning to `CCOCCOc1cc(C)c(-c2cccc(COc3ccc(Cn4oc(=O)[n-]c4=O)cc3)c2)c(C)c1.[Na+]` [Example 44], on human GPR40, the EC50 turned out to be 0.67 µM. Besides, the Insulin secretion-accelerating action with MIN6 cell worked out at 287%. Further, the inhibition in vivo at 10 mg/kg in assay [1] worked out at 21%.

For `COc1cc(C)c(-c2cccc(COc3ccc(Cn4oc(=O)[nH]c4=O)cc3)c2)c(C)c1` [Example 47], the EC50 at human GPR40 was found to be 0.42 µM. The inhibition in vivo at 10 mg/kg in assay [1] worked out at 36%.

With `COc1cccc(OC)c1-c1cccc(COc2ccc(Cn3oc(=O)[nH]c3=O)cc2)c1` [Example 56], the 50% effective concentration (EC50) at human GPR40 is 0.76 µM. For the same compound, the inhibition in vivo at 10 mg/kg in assay [1] amounted to 31%. For `O=c1[nH]c(=O)n(Cc2ccc(OCc3cccc(-c4c(Cl)cccc4Cl)c3)cc2)o1` [Example 60] the same measures were 0.46 µM and 35%. On to `Cc1cccc(C)c1-c1cncc(COc2ccc(Cn3oc(=O)[nH]c3=O)cc2)c1` [Example 82], for which, on human GPR40, the EC50 came out at 0.93 µM. Same read-out and setting: to `Cc1cccc(C)c1-c1cccc(COc2ccc(Cn3oc(=O)[nH]c3=O)cn2)c1` [Example 99] belongs 0.45 µM. Regarding `Cc1cc(C(=O)NC2CCOCC2)ccc1-c1cccc(COc2ccc(Cn3oc(=O)[nH]c3=O)cc2)c1` [Example 117], at human GPR40, the EC50 came out at 0.29 µM. Moreover, the inhibition in vivo at 10 mg/kg in assay [1] came to 21%. For `Cc1cc(OS(C)(=O)=O)cc(C)c1-c1cccc(COc2ccc(Cn3oc(=O)[nH]c3=O)cc2)c1` [Example 119] the same measures were 0.22 µM and 22%. For `Cc1cc(OCCC(C)(C)O)cc(C)c1-c1cccc(COc2ccc(Cn3oc(=O)[nH]c3=O)cc2)c1C` [Example 166] the same measures were 0.22 µM and 35%.

With `Cc1cc(OCC[C@H](C)O)ccc1-c1cccc(COc2ccc(Cn3oc(=O)[nH]c3=O)cc2)c1C` [Example 173], the 50% effective concentration (EC50) at human GPR40 came out at 0.66 µM. Besides, in assay [1], the inhibition in vivo at 10 mg/kg amounted to 21%. For the compound `CC(=O)NCCCOc1ccc(-c2cccc(COc3ccc(Cn4oc(=O)[nH]c4=O)cc3)c2C)c(C)c1` [Example 189], at human GPR40, the EC50 turned out to be 0.059 µM. Also, the inhibition in vivo at 10 mg/kg in assay [1] worked out at 30%.

Take `Cc1cc(OCC[C@H](C)O)cc(C)c1-c1cccc(COc2ccc(Cn3oc(=O)[nH]c3=O)cc2)c1C` [Example 193]: on human GPR40, the EC50 was 0.52 µM. Moreover, the inhibition in vivo at 10 mg/kg in assay [1] amounted to 46%. For `Cc1cccc(C)c1-c1cccc(CNc2ccc(Cn3oc(=O)[nH]c3=O)cc2)c1` [Example 406] the same measures were 0.12 µM and 42%.
